This data set can be described thus: on-resin lactamisation, Asp side-chain COOH (C-terminal residue, anchored via Rink amide) + alpha-NH2 of N-terminal Dap(Boc); HATU/DIEA 1.05:2.1 equiv, overnight; then TFA cleavage. The following applies: NMP, 57.0 mM; for ring closure, product found: scale: 1 = cyclic product is largest ESI-MS signal, 0 = linear; for ring closure, conversion by HPLC: scale: % crude HPLC purity, 320 nm area of tallest peak or peak cluster.

Where [1] appears, read: from CC(C)(C)OC(=O)NC[C@H](N)C(=O)NCC(=O)N[C@@H](CNC(=O)c1cnc2ccccc2n1)C(=O)NCC(=O)NCC(=O)N[C@@H](CNC(=O)c1cnc2ccccc2n1)C(=O)N[C@@H](CC(=O)O)C(N)=O, 22-membered ring.
The mark [2] stands for this setting: from CC(C)(C)OC(=O)NC[C@H](N)C(=O)N[C@@H](CNC(=O)c1cnc2ccccc2n1)C(=O)N[C@@H](CNC(=O)c1cnc2ccccc2n1)C(=O)NCC(=O)N[C@@H](CNC(=O)c1cnc2ccccc2n1)C(=O)NCC(=O)N[C@@H](CC(=O)O)C(N)=O, 22-membered ring.
Setting [3] is: from CC(C)(C)OC(=O)NC[C@H](N)C(=O)N[C@@H](CNC(=O)c1cnc2ccccc2n1)C(=O)N[C@@H](CNC(=O)c1cnc2ccccc2n1)C(=O)NCC(=O)NCC(=O)NCC(=O)N[C@@H](CC(=O)O)C(N)=O, 22-membered ring.
[4] abbreviates: from CC(C)(C)OC(=O)NC[C@H](N)C(=O)NCC(=O)N[C@@H](CNC(=O)c1cnc2ccccc2n1)C(=O)N[C@@H](CNC(=O)c1cnc2ccccc2n1)C(=O)NCC(=O)NCC(=O)N[C@@H](CC(=O)O)C(N)=O, 22-membered ring.
[5] abbreviates: from CC(C)(C)OC(=O)NC[C@H](N)C(=O)N[C@@H](CNC(=O)c1cnc2ccccc2n1)C(=O)NCC(=O)NCC(=O)N[C@@H](CNC(=O)c1cnc2ccccc2n1)C(=O)NCC(=O)N[C@@H](CC(=O)O)C(N)=O, 22-membered ring.
[6] abbreviates: from CC(C)(C)OC(=O)NC[C@H](N)C(=O)NCC(=O)NCC(=O)N[C@@H](CNC(=O)c1cnc2ccccc2n1)C(=O)N[C@@H](CNC(=O)c1cnc2ccccc2n1)C(=O)N[C@@H](CNC(=O)c1cnc2ccccc2n1)C(=O)N[C@@H](CC(=O)O)C(N)=O, 22-membered ring.
Setting [7] is: from CC(C)(C)OC(=O)NC[C@H](N)C(=O)N[C@@H](CNC(=O)c1cnc2ccccc2n1)C(=O)NCC(=O)NCC(=O)N[C@@H](CNC(=O)c1cnc2ccccc2n1)C(=O)N[C@@H](CNC(=O)c1cnc2ccccc2n1)C(=O)N[C@@H](CC(=O)O)C(N)=O, 22-membered ring.
Where [8] appears, read: from CC(C)(C)OC(=O)NC[C@H](N)C(=O)NCC(=O)N[C@@H](CNC(=O)c1cnc2ccccc2n1)C(=O)N[C@@H](CNC(=O)c1cnc2ccccc2n1)C(=O)N[C@@H](CNC(=O)c1cnc2ccccc2n1)C(=O)NCC(=O)N[C@@H](CC(=O)O)C(N)=O, 22-membered ring.
Where [9] appears, read: from CC(C)(C)OC(=O)NC[C@H](N)C(=O)N[C@@H](CNC(=O)c1cnc2ccccc2n1)C(=O)N[C@@H](CNC(=O)c1cnc2ccccc2n1)C(=O)N[C@@H](CNC(=O)c1cnc2ccccc2n1)C(=O)NCC(=O)NCC(=O)N[C@@H](CC(=O)O)C(N)=O, 22-membered ring.
Setting [10] is: from CC(C)(C)OC(=O)NC[C@H](N)C(=O)NCC(=O)NCC(=O)N[C@@H](CNC(=O)c1cnc2ccccc2n1)C(=O)N[C@@H](CNC(=O)c1cnc2ccccc2n1)C(=O)NCC(=O)N[C@@H](CC(=O)O)C(N)=O, 22-membered ring.

Where only a bound is given, the exact number is not on record here.

For the compound `NC[C@@H]1NC(=O)C[C@@H](C(N)=O)NC(=O)[C@H](CNC(=O)c2cnc3ccccc3n2)NC(=O)CNC(=O)CNC(=O)[C@H](CNC(=O)c2cnc3ccccc3n2)NC(=O)CNC1=O`, under setting [1], the ring closure, product found is 1 and the ring closure, conversion by HPLC came to 56.

Consider `NC[C@@H]1NC(=O)C[C@@H](C(N)=O)NC(=O)CNC(=O)[C@H](CNC(=O)c2cnc3ccccc3n2)NC(=O)CNC(=O)[C@H](CNC(=O)c2cnc3ccccc3n2)NC(=O)[C@H](CNC(=O)c2cnc3ccccc3n2)NC1=O`, for which, under setting [2], the ring closure, product found came out at 1 and the ring closure, conversion by HPLC came to 49.

With `NC[C@@H]1NC(=O)C[C@@H](C(N)=O)NC(=O)CNC(=O)CNC(=O)CNC(=O)[C@H](CNC(=O)c2cnc3ccccc3n2)NC(=O)[C@H](CNC(=O)c2cnc3ccccc3n2)NC1=O`, under setting [3], the ring closure, product found came out at 1 and the ring closure, conversion by HPLC came out at 35.

For `NC[C@@H]1NC(=O)C[C@@H](C(N)=O)NC(=O)CNC(=O)CNC(=O)[C@H](CNC(=O)c2cnc3ccccc3n2)NC(=O)[C@H](CNC(=O)c2cnc3ccccc3n2)NC(=O)CNC1=O`, under setting [4], the ring closure, product found came out at 1 and the ring closure, conversion by HPLC is 69.

As to `NC[C@@H]1NC(=O)C[C@@H](C(N)=O)NC(=O)CNC(=O)[C@H](CNC(=O)c2cnc3ccccc3n2)NC(=O)CNC(=O)CNC(=O)[C@H](CNC(=O)c2cnc3ccccc3n2)NC1=O`, under setting [5], the ring closure, product found amounted to 1 and the ring closure, conversion by HPLC turned out to be 53.

As to `NC[C@@H]1NC(=O)C[C@@H](C(N)=O)NC(=O)[C@H](CNC(=O)c2cnc3ccccc3n2)NC(=O)[C@H](CNC(=O)c2cnc3ccccc3n2)NC(=O)[C@H](CNC(=O)c2cnc3ccccc3n2)NC(=O)CNC(=O)CNC1=O`, under setting [6], the ring closure, product found stood at 0 and the ring closure, conversion by HPLC was below 48.

Consider `NC[C@@H]1NC(=O)C[C@@H](C(N)=O)NC(=O)CNC(=O)[C@H](CNC(=O)c2cnc3ccccc3n2)NC(=O)CNC(=O)[C@H](CNC(=O)c2cnc3ccccc3n2)NC1=O` [H-Dap(Boc)-Dap(Qxc)-Gly-Dap(Qxc)-Gly-Asp(OH)-NH-Rink resin], for which the ring closure, product found (from CC(C)(C)OC(=O)NC[C@H](N)C(=O)N[C@@H](CNC(=O)c1cnc2ccccc2n1)C(=O)NCC(=O)N[C@@H](CNC(=O)c1cnc2ccccc2n1)C(=O)NCC(=O)N[C@@H](CC(=O)O)C(N)=O, 19-membered ring) came to 1.

For the compound `NC[C@@H]1NC(=O)C[C@@H](C(N)=O)NC(=O)[C@H](CNC(=O)c2cnc3ccccc3n2)NC(=O)[C@H](CNC(=O)c2cnc3ccccc3n2)NC(=O)CNC(=O)CNC(=O)[C@H](CNC(=O)c2cnc3ccccc3n2)NC1=O`, under setting [7], the ring closure, product found was 0 and the ring closure, conversion by HPLC was below 30.

For the compound `NC[C@@H]1NC(=O)C[C@@H](C(N)=O)NC(=O)CNC(=O)[C@H](CNC(=O)c2cnc3ccccc3n2)NC(=O)[C@H](CNC(=O)c2cnc3ccccc3n2)NC(=O)[C@H](CNC(=O)c2cnc3ccccc3n2)NC(=O)CNC1=O`, under setting [8], the ring closure, product found came out at 1 and the ring closure, conversion by HPLC was determined as 79.

As for `NC[C@@H]1NC(=O)C[C@@H](C(N)=O)NC(=O)CNC(=O)CNC(=O)[C@H](CNC(=O)c2cnc3ccccc3n2)NC(=O)[C@H](CNC(=O)c2cnc3ccccc3n2)NC(=O)[C@H](CNC(=O)c2cnc3ccccc3n2)NC1=O`, under setting [9], the ring closure, product found stood at 1 and the ring closure, conversion by HPLC stood at 25.

`NC[C@@H]1NC(=O)C[C@@H](C(N)=O)NC(=O)CNC(=O)[C@H](CNC(=O)c2cnc3ccccc3n2)NC(=O)[C@H](CNC(=O)c2cnc3ccccc3n2)NC(=O)CNC(=O)CNC1=O`: under setting [10], the ring closure, product found came out at 1 and the ring closure, conversion by HPLC was 60.
